Test results as given in US20080171710A1, “The Redox/Fyn/c-Cbl Pathway” (priority 2007, published 2008).

Assays:
TrkC [1] = assay: TrkC levels in brain tissue after developmental exposure; type: in vivo, SJL mice; conditions: 100 or 250 ppb MeHg in maternal drinking water
Source text: (§1) Anti-phosphorylated Erk monoclonal, anti-Erk monoclonal, anti-TrkC polyclonal anti-Fyn polyclonal, anti-EGFR polyclonal, anti-c-Met polyclonal, anti-phospho-tyrosine monoclonal, and anti-PDGFRα polyclonal antibodies were obtained from Santa Cruz Biotechnology (Santa Cruz, Calif., United States). Anti-c-Cbl monoclonal antibody was obtained from BD PharMingen (San Diego, Calif., United States). Anti-phosphorylated Akt monoclonal and anti-Akt polyclonal antibodies were obtained from Cell Signaling Technology (Beverly, Mass., United States). Anti-phosphorylated PDGPRα polyclonal antibody was obtained from Biosource (Carlsbad, Calif., United States). The cell culture samples were collected and lysed in RAPI buffer, whereas dissected tissue samples were sonicated in RAPI buffer. Samples were resolved on SDS-PAGE gels and transferred to PVDF membranes (PerkinElmer Life Science. Wellesley, Mass., United States), After being blocked in 5% skim milk in PBS containing 0.1% Tween 20, membranes were incubated with a primary antibody, followed by incubation with an HRP-conjugated secondary antibody (Santa Cruz Biotechnology). Membranes were visualized using Western Blotting Luminol Reagent (Santa Cruz Biotechnology). […]

PDGFRα [2] = assay: PDGFR ubiquitylation (immunoprecipitation assay); type: cell-based, rat; conditions: MeHg exposure
Experimental: For the co-immunoprecipitation assay, anti-c-Cbl monoclonal antibody (BD PharMingen) or anti-PDGFRα polyclonal antibody (Santa Cruz Biotechnology) was added to the pre-cleared cell lysates (250 μg of total protein), and the mixtures were gently rocked for 2 h at 4° C. A total of 30 μl of protein A/G agarose was then added to the mixture followed by rotating at 4° C. overnight. The protein A/G agarose was then spun down and washed thoroughly three times. The precipitates were resolved on an 8% SDS-PAGE gel and then were subjected to Western blot analysis using an anti-p-Tyr (for c-Cbl phosphorylation assay) or ubiquitin (for PDGFR ubiquitylation assay) antibody (Santa Cruz Biotechnology).

TrkC [3] = type: cell-based, rat; conditions: MeHg, Pb or paraquat
In short: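 Western blot of cell lysates or sonicated tissue in RAPI buffer, SDS-PAGE to PVDF, primary antibodies (phospho-Erk, phospho-Akt, receptor, phospho-tyrosine), HRP secondary and luminol detection. Signaling analysed in presence of the cognate ligand: EGF for EGFR, NT-3 for TrkC, HGF for c-Met.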

O-2A/OPCs = assay: Intracellular ROS / redox state measurement; type: cell-based, rat; conditions: O-2A/OPCs in PDGF; MeHg, exposure levels as low as 20 nM
Experimental: Cells were plated in 96-well microplates and grown to about 60% continence. […] Cells were then washed once with HBSS and growth medium to remove free probe. Then, fresh growth medium was added and a baseline fluorescence reading was taken prior to treatment. For NAC pre-treatment. […] Fluorescence was measured in a Wallac 1420 Victor2 multilabel counter (PerkinElmer) using excitation and emission wavelengths of 485 nm and 535 nm, respectively, at different time courses as indicated in the figures. Results are presented as the value change from baseline by the formula (Ftexp−Ftbase)/Ftbase normalized with the control group, where Ftexp=fluorescence at any given time during the experiment in a give well and Ftbase=baseline fluorescence of the same well.

EGFR = EGFR levels in brain tissue after developmental exposure; type: in vivo, SJL mice; conditions: 100 or 250 ppb MeHg in maternal drinking water; 7 and 21 d after birth
Source text: as §1

PDGFRα [4] = assay: PDGFRα levels in brain tissue after developmental exposure; type: in vivo, SJL mice; conditions: 100 or 250 ppb MeHg in maternal drinking water; cerebellum, hippocampus, corpus callosum; 7 and 21 d after birth
Source text: as §1

MDA-MB-231 cell = MDA-MB-231 cell division by BrdU incorporation; type: cell-based; conditions: NAC 1 mM or PP1 200 nM with 20 μM tamoxifen, 48 hours
Experimental: It has been reported that c-Cbl induced down-regulation of EGFR is disabled in cancer cells (Hirsch DS, Shen. Y, Wu WJ, (2006) Cancer Res. Apr 1;66(7):3523-30). Thus, growth and motility inhibition of breast cancer cells by EGFR degradation is correlated with inaetivation of Cdc42. […] Cells were cultured in phenol red-free growth media and exposed to TMX (0, 1 μM, 10 μM, 20 μM and 50 μM) for 48 hours, with or without 1 mM NAC. In FIG. 22C. MDA-MB-231 cell division was analyzed by BrdU incorporation analysis. […] Percentage of Brdu+ cells from DAPI+ cells was determined in each sample.

Compound	levels of TrkC in brain (TrkC [1])	ubiquitylation of PDGFRα (PDGFRα [2])	levels of TrkC after toxicant exposure (TrkC [3])	cells more oxidized (intracellular redox state) (O-2A/OPCs)	levels of EGFR in brain (EGFR)	levels of PDGFRα in brain (PDGFRα [4])	rescue from tamoxifen effect on cell division (MDA-MB-231 cell)
[CH3][Hg][Cl] [MeHg, methylmercury]	not reduced	enhanced ubiquitylation	no reduction in levels of TrkC	approximately 20%	clear and significant reductions	clear and significant reductions	–
CC(=O)N[C@@H](CS)C(=O)O [NAC, N-acetyl-L-cysteine]	–	–	–	–	–	–	did not result in any rescue effect
